According to patent US5668182A, “Method of calming or sedating an animal with a hydroxy benzaldehyde compound” (priority 1996, dated 1997):

Legend:
Assay type in all cases: in vivo
mice [1] = test: Metrazol-induced seizures in mice (Example 5); details: for Death: Metrazol 90 mg/kg i.p. (vehicle 0/6); for Tonic Convulsion: Metrazol 90 mg/kg i.p. (vehicle 6/6)
Experimental: Mice were treated with vanillin (100, 200, or 300 mg/kg) or saline (0.9% NaCl) by i.p. injection. The treatment was followed either by injection of pentylenetetrazol ("Metrazol"), 80 or 90 mg/kg by i.p. injection (given 5 minutes after vanillin) or by exposure to a 1-second pulse of shock through electrodes clamped to the ears (5 minutes after vanillin). The end-points for both tests were the occurrence of a tonic (extensor) convulsion and/or death. Six mice were used per group for the Metrazol-induced seizure test, and five mice were used per group for the electroshock-induced seizure test.

mice [2] = test: Pentobarbital-induced loss of righting reflex ("sleep") in mice (Example 2)
Experimental: The depressant effect of vanillin on mice was investigated by examining the effect of vanillin on pentobarbital-induced loss of righting reflex. Groups of mice (six to fourteen mice per group) were designated to receive a dose of vanillin of 50, 100, 200 or 300 mg/kg, or a control vehicle (0.9% sodium chloride in water). Fifty (50) mg/kg I.p. (intraperitoneally)injected pentobarbital was administered to each mouse of each group, and each mouse was also concurrently given the dose of vanillin (50, 100, 200 or 300 mg/kg) or the control vehicle, depending on its grouping, by s.c. (subcutaneous) injection.
The effects of vanillin on the onset and duration of "sleep" induced by the pentobarbital were observed. […] Means and standard errors of values for onset and duration of "sleep" were determined for each experimental group. Each vanillin-treated group was compared with its concomitantly tested control group (treated with saline in lieu of vanillin) for evaluating the statistical significance of vanillin effect.

rats = test: Behavioral depression in rats after i.v. infusion (Example 1); details: for Grip Absent (number of rats): first figure of cell; for Grip Weak (number of rats): second figure of cell
Experimental: To assess behavioral depression in rats as induced by vanillin, male and female rats, five of each gender at each dose, were given doses of vanillin of 50, 100 or 200 mg/kg, respectively, or a control vehicle (0.9% sodium chloride in water) by intravenous (i.v.) infusion. Therefore, there were four groups of rats with ten rats per group tested at each dosage. The solution was infused into a tail vein through a butterfly cannula, with the infusion being performed at a constant rate over a 5-minute period using a Harvard infusion pump.
The evaluations were performed on days 1, 3, 5 and 9 of vanillin administration.

[3] = 50 mg/kg i.v., day 1, <2 min, 10 rats per group
[4] = highest dose (200 mg/kg i.v.), day 1
[5] = highest dose (200 mg/kg i.v.), days 5 and 9

Compound: COc1cc(C=O)ccc1O [vanillin, 4-hydroxy-3-methoxybenzaldehyde]
- protection versus Metrazol-induced seizures (mice [1]; 300 mg/kg): some protection
- anticonvulsant activity (mice [1]; particularly at higher doses, data of Table 5): some mild anticonvulsant activity
- Death (mice [1]; vanillin 200 mg/kg i.p.): 2/6
- Tonic Convulsion (mice [1]; vanillin 200 mg/kg i.p.): 5/6
- Death (mice [1]; vanillin 300 mg/kg i.p.): 0/6
- Tonic Convulsion (mice [1]; vanillin 300 mg/kg i.p.): 1/6
- duration of loss of righting reflex (mice [2]; 100 to 300 mg/kg along with pentobarbital): markedly increased and enhanced
- effect on barbituate-induced loss of righting reflex (mice [2]; lower dose, 50 mg/kg): appeared to lessen the barbituate effect
- Duration of "Sleep" (mean + SEM) (mice [2]; vanillin 50 mg/kg s.c. + pentobarbital 50 mg/kg i.p., * p<0.05 vs control (vehicle 31.0 ± 3.79)): 20.3 ± 1.09 min
- Duration of "Sleep" (mean + SEM) (mice [2]; vanillin 100 mg/kg s.c. + pentobarbital 50 mg/kg i.p. (vehicle 36.5 ± 4.67)): 47.6 ± 4.48 min
- Onset of "sleep" (mean + SEM) (mice [2]; vanillin 200 mg/kg s.c. + pentobarbital 50 mg/kg i.p. (vehicle 3.5 ± 0.87)): 2.8 ± 0.97 min
- Duration of "Sleep" (mean + SEM) (mice [2]; vanillin 200 mg/kg s.c. + pentobarbital 50 mg/kg i.p., ** p<0.001 vs control (vehicle 27.4 ± 3.34)): 62.9 ± 5.05 min
- Onset of "sleep" (mean + SEM) (mice [2]; vanillin 300 mg/kg s.c. + pentobarbital 50 mg/kg i.p. (vehicle 4.3 ± 0.97)): 3.3 ± 0.23 min
- Duration of "Sleep" (mean + SEM) (mice [2]; vanillin 300 mg/kg s.c. + pentobarbital 50 mg/kg i.p., ** p<0.001 vs control (vehicle 39.6 ± 6.57)): 102.1 ± 5.71 min
- Ambulation Absent (number of rats) (rats; 50 mg/kg i.v., day 1, 10 min): 0
- Sign of depression: Score > 0 (number of rats) (rats; 50 mg/kg i.v., day 1, 10 min, 10 rats per group): 0
- Grip Absent (number of rats) (rats; 50 mg/kg i.v., day 1, 10 min): 0
- Grip Weak (number of rats) (rats; 50 mg/kg i.v., day 1, 10 min): 0
- Ambulation Absent (number of rats) (rats; 50 mg/kg i.v., day 1, 20 min): 0
- Sign of depression: Score > 0 (number of rats) (rats; 50 mg/kg i.v., day 1, 20 min, 10 rats per group): 0
- Grip Absent (number of rats) (rats; 50 mg/kg i.v., day 1, 20 min): 0
- Grip Weak (number of rats) (rats; 50 mg/kg i.v., day 1, 20 min): 0
- Ambulation Absent (number of rats) (rats; 50 mg/kg i.v., day 1, 30 min): 0
- Sign of depression: Score > 0 (number of rats) (rats; 50 mg/kg i.v., day 1, 30 min, 10 rats per group): 0
- Grip Absent (number of rats) (rats; 50 mg/kg i.v., day 1, 30 min): 0
- Grip Weak (number of rats) (rats; 50 mg/kg i.v., day 1, 30 min): 0
- Ambulation Absent (number of rats) (rats; 50 mg/kg i.v., day 1, 45 min): 0
- Sign of depression: Score > 0 (number of rats) (rats; 50 mg/kg i.v., day 1, 45 min, 10 rats per group): 0
- Grip Absent (number of rats) (rats; 50 mg/kg i.v., day 1, 45 min): 0
- Grip Weak (number of rats) (rats; 50 mg/kg i.v., day 1, 45 min): 0
- Ambulation Absent (number of rats) (rats; [3]): 0
- Grip Absent (number of rats) (rats; [3]): 0
- Grip Weak (number of rats) (rats; [3]): 1
- Sign of depression: Score > 0 (number of rats) (rats; 50 mg/kg i.v., day 1, <2 min after treatment, 10 rats per group): 0
- Ambulation Absent (number of rats) (rats; 100 mg/kg i.v., day 1, 10 min): 0
- Sign of depression: Score > 0 (number of rats) (rats; 100 mg/kg i.v., day 1, 10 min, 10 rats per group): 0
- Grip Absent (number of rats) (rats; 100 mg/kg i.v., day 1, 10 min): 0
- Grip Weak (number of rats) (rats; 100 mg/kg i.v., day 1, 10 min): 2
- Ambulation Absent (number of rats) (rats; 100 mg/kg i.v., day 1, 20 min): 0
- Sign of depression: Score > 0 (number of rats) (rats; 100 mg/kg i.v., day 1, 20 min, 10 rats per group): 0
- Grip Absent (number of rats) (rats; 100 mg/kg i.v., day 1, 20 min): 0
- Grip Weak (number of rats) (rats; 100 mg/kg i.v., day 1, 20 min): 0
- Ambulation Absent (number of rats) (rats; 100 mg/kg i.v., day 1, 30 min): 0
- Sign of depression: Score > 0 (number of rats) (rats; 100 mg/kg i.v., day 1, 30 min, 10 rats per group): 0
- Grip Absent (number of rats) (rats; 100 mg/kg i.v., day 1, 30 min): 0
- Grip Weak (number of rats) (rats; 100 mg/kg i.v., day 1, 30 min): 0
- Ambulation Absent (number of rats) (rats; 100 mg/kg i.v., day 1, 45 min): 0
- Sign of depression: Score > 0 (number of rats) (rats; 100 mg/kg i.v., day 1, 45 min, 10 rats per group): 0
- Grip Absent (number of rats) (rats; 100 mg/kg i.v., day 1, 45 min): 0
- Grip Weak (number of rats) (rats; 100 mg/kg i.v., day 1, 45 min): 0
- Ambulation Absent (number of rats) (rats; 100 mg/kg i.v., day 1, <2 min): 0
- Grip Absent (number of rats) (rats; 100 mg/kg i.v., day 1, <2 min): 0
- Grip Weak (number of rats) (rats; 100 mg/kg i.v., day 1, <2 min): 6
- Sign of depression: Score > 0 (number of rats) (rats; 100 mg/kg i.v., day 1, <2 min after treatment, 10 rats per group): 0
- Ambulation Absent (number of rats) (rats; 200 mg/kg i.v., day 1, 10 min): 0
- Sign of depression: Score > 0 (number of rats) (rats; 200 mg/kg i.v., day 1, 10 min, 10 rats per group): 0
- Grip Absent (number of rats) (rats; 200 mg/kg i.v., day 1, 10 min): 0
- Grip Weak (number of rats) (rats; 200 mg/kg i.v., day 1, 10 min): 8
- Ambulation Absent (number of rats) (rats; 200 mg/kg i.v., day 1, 20 min): 0
- Sign of depression: Score > 0 (number of rats) (rats; 200 mg/kg i.v., day 1, 20 min, 10 rats per group): 0
- Grip Absent (number of rats) (rats; 200 mg/kg i.v., day 1, 20 min): 0
- Grip Weak (number of rats) (rats; 200 mg/kg i.v., day 1, 20 min): 8
- Ambulation Absent (number of rats) (rats; 200 mg/kg i.v., day 1, 30 min): 0
- Sign of depression: Score > 0 (number of rats) (rats; 200 mg/kg i.v., day 1, 30 min, 10 rats per group): 0
- Grip Absent (number of rats) (rats; 200 mg/kg i.v., day 1, 30 min): 0
- Grip Weak (number of rats) (rats; 200 mg/kg i.v., day 1, 30 min): 5
- Ambulation Absent (number of rats) (rats; 200 mg/kg i.v., day 1, 45 min): 0
- Sign of depression: Score > 0 (number of rats) (rats; 200 mg/kg i.v., day 1, 45 min, 10 rats per group): 0
- Grip Absent (number of rats) (rats; 200 mg/kg i.v., day 1, 45 min): 0
- Grip Weak (number of rats) (rats; 200 mg/kg i.v., day 1, 45 min): 2
- Ambulation Absent (number of rats) (rats; 200 mg/kg i.v., day 1, <2 min): 5
- Grip Absent (number of rats) (rats; 200 mg/kg i.v., day 1, <2 min): 10
- Grip Weak (number of rats) (rats; 200 mg/kg i.v., day 1, <2 min): 10
- Sign of depression: Score > 0 (number of rats) (rats; 200 mg/kg i.v., day 1, <2 min after treatment, 10 rats per group): 3
- rats rated with depression scores above zero (rats; days 5 and 9): no rats
- time for diminished grip to return to normal (rats; days 5 and 9, almost all rats with diminished grip): ≤ 20 min
- tolerance to depressant effects (rats; days 5 and 9, i.v.): some suggestion of tolerance
- effect on grip strength (rats; [4]): obliterated
- persistence of slight effect on grip strength (rats; [4]): ≥ 45 min
- rats displaying absence of grip (rats; [5]): 4 of 10
- rats exhibiting no muscular or motor impairment at all (rats; [5]): 1
- time for return of ability to walk (rats; i.v., highest dose 200 mg/kg, day 1, some of the rats): less than 10 minutes
- persistence of eye closure (rats; intermediate and high dose groups i.v., several rats): up to 45 minutes
- time to appearance of eye closure (rats; intermediate and high dose groups i.v., several rats, typically): ≤ 10 min
- effect on grip strength (rats; intermediate dose (100 mg/kg i.v.), day 1): weakened in most rats
- effects on righting reflex and on motor coordination (rats; vanillin given alone, rats): mild and transient
